According to patent US10227331B2 (priority 2015, dated 2019):
Like-named read-outs stand apart in the source and are kept apart here.

Legend:
VIM-1 = VIM-1 (Pseudomonas aeruginosa (strain ATCC 15692 / DSM 22644 / CIP 104116 / JCM 14847 / LMG 12228 / 1C / PRS 101 / PAO1), UniProt A0A0F7KYQ8); test: biochemical; conditions: CCF2-FA substrate, 2 hours at 25° C
Summary of the method: (§1)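 Semi-log dose-response curves, fitted with a 4-parameter model, gave IC50s. The underlying signal was CCF2-FA fluorescence following 2 hours at 25° C with enzyme, substrate and inhibitor combined.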

[1] = system: Escherichia coli expressing NDM-1 (CLB30005, CLB30016); assay type: cell-based; conditions: with imipenem 1 μg/ml, 95% inhibition of bacterial growth; for Escherichia coli MITC95: NDM-1 (CLB30016)
Summary of the method: (§2)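 Restoration of imipenem susceptibility (1 μg/ml imipenem) was judged by absorbance after 22–24 h at 35° C. Test compound was added to bacteria suspended 1:100 in 1.1× CAMHB from overnight blood-agar cultures.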

[2] = system: Klebsiella pneumoniae expressing VIM-1 (IHMA599644); assay type: cell-based; conditions: with imipenem 1 μg/ml, 95% inhibition of bacterial growth; for Klebsiella pneumoniae MITC95: VIM-1 (IHMA599644)
Summary of the method: as §2

[3] = system: Serratia marcescens expressing IMP-1 (CL5741); assay type: cell-based; conditions: with imipenem 1 μg/ml, 95% inhibition of bacterial growth; for Serratia marcescens MITC95: IMP-1 (CL5741)
Summary of the method: as §2

[4] = system: P. aeruginosa expressing IMP-1, efflux− (MB9799); test: Efflux: concentration of MBL inhibitor which restores susceptibility to imipenem; assay type: cell-based, Pseudomonas aeruginosa; conditions: imipenem at 2 μg/mL, in the presence of a class A, C, D serine β-lactamase inhibitor closely related to relebactam
Excerpt: (§3) The strain background is Pseudomonas aeruginosa PAO1.

NDM-1 = NDM-1 (Klebsiella pneumoniae, UniProt C7C422); test: biochemical; assay type: biochemical; conditions: CCF2-FA substrate, 2 hours at 25° C; read-out: NDM-1 IC50
Summary of the method: as §1

IMP-1 = IMP-1 (Serratia marcescens, UniProt P52699); test: biochemical; assay type: biochemical
Summary of the method: as §1

[5] = system: P. aeruginosa expressing IMP-1, efflux+ (MB9798); assay type: cell-based, Pseudomonas aeruginosa; conditions: for P. aeruginosa expressing IMP-1, efflux+ (MB9798) MITC95: imipenem at 2 μg/mL, in the presence of a class A, C, D serine β-lactamase inhibitor closely related to relebactam; for Efflux ratio: ratio MITC95 PA_9798/MITC95 PA_9799
Excerpt: as §3

[6] = CCF2-FA substrate, 2 hours at 25° C, read-out: IMP-1 IC50

Sequence of NDM-1 (C7C422 whole entry, looked up, species assumed): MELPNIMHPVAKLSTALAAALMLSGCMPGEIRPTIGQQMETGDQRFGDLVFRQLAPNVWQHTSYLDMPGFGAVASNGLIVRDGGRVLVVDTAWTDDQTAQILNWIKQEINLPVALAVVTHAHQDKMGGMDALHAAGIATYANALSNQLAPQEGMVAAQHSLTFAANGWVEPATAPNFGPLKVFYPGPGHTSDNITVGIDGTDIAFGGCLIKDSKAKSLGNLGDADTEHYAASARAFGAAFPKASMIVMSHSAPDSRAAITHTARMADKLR
Sequence of IMP-1 (P52699 whole entry, looked up, species assumed): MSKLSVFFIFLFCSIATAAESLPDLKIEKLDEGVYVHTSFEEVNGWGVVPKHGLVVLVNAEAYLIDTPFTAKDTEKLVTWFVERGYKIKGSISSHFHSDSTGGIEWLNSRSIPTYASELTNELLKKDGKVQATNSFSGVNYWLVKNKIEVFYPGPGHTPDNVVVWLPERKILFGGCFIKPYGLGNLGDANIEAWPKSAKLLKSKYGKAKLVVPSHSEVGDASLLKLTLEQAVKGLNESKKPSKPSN

Row | Compound | IC50 (VIM-1) [nM] | Escherichia coli expressing NDM-1 (CLB30016) MITC95 [1] [µM] | Klebsiella pneumoniae expressing VIM-1 (IHMA599644) MITC95 [2] [µM] | Serratia marcescens expressing IMP-1 (CL5741) MITC95 [3] [µM] | P. aeruginosa expressing IMP-1, efflux− (MB9799) MITC95 [4] [µM] | IC50 (NDM-1) [nM] | IC50 (IMP-1; [6]) [nM] | P. aeruginosa expressing IMP-1, efflux+ (MB9798) MITC95 [5] [µM] | Efflux ratio [5] | IC50 (IMP-1) [nM] | Escherichia coli MITC95 [1] [µM] | Klebsiella pneumoniae MITC95 [2] [µM] | Serratia marcescens MITC95 [3] [µM]
1 | NCCN1CC(S(=O)(=O)c2ccc(-c3cccc4[nH]c(N)nc34)c(-c3nn[nH]n3)c2S(N)(=O)=O)C1 [Example 51, 3-(2-amino-1H-benzo[d]imidazol-4-yl)-6-(1-(2-aminoethyl)azetidin-3-ylsulfonyl)-2-(2H-tetrazol-5-yl)benzenesulfonamide] | 0.426 | 0.3906 | 1.563 | 0.7813 | 0.7813 | 0.145 | 1.31 | 0.7813 | 1.00 | – | – | – | –
2 | Nc1nc2c(-c3ccc(S(=O)(=O)[C@H]4CCNC4)c(S(N)(=O)=O)c3-c3nn[nH]n3)cccc2o1 [Example 190, 3-(2-aminobenzo[d]oxazol-4-yl)-6-((S)-pyrrolidin-3-ylsulfonyl)-2-(2H-tetrazol-5-yl)benzenesulfonamide] | 0.169 | 1.563 | 3.125 | 1.563 | 1.563 | 0.113 | – | 1.563 | 1.00 | 0.352 | – | – | –
3 | NS(=O)(=O)c1c(SC2CNC2)ccc(-c2cccc3nccn23)c1-c1nnn[nH]1 [Example 63, 6-(Azetidin-3-ylthio)-3-(imidazo[1,2-a]pyridin-5-yl)-2-(1H-tetrazol-5-yl)benzenesulfonamide] | 30.5 | 1 | 3.125 | 3.125 | 1.781 | 5.91 | 125 | 50 | 28.07 | – | – | – | –
4 | NCCS(=O)(=O)c1ccc(-c2cccc3c2nc(N)n3C2CNC2)c(-c2nn[nH]n2)c1S(N)(=O)=O [Example 202, 3-(2-amino-1-(azetidin-3-yl)-1H-benzo[d]imidazol-4-yl)-6-((2-aminoethyl)sulfonyl)-2-(2H-tetrazol-5-yl)benzenesulfonamide] | 1.1 | 1.563 | 3.125 | 3.125 | 1.563 | 2.92 | 0.859 | 6.25 | 4.00 | – | – | – | –
5 | NC[C@H](O)CS(=O)(=O)c1ccc(-c2cccc(-c3c[nH]c(N)n3)c2)c(-c2nn[nH]n2)c1S(N)(=O)=O [Example 366, (S)-3'-(2-amino-1H-imidazol-4-yl)-4-((3-amino-2-hydroxypropyl)sulfonyl)-2-(2H-tetrazol-5-yl)-[1,1'-biphenyl]-3-sulfonamide] | 1.17 | – | – | – | 1.563 | 0.623 | 1.81 | 3.125 | 2.00 | – | 0.7813 | 1.563 | 1.563
6 | NCCS(=O)(=O)c1ccc(-c2cccc3[nH]c(CC(N)C(=O)O)nc23)c(-c2nn[nH]n2)c1S(N)(=O)=O (stereo not drawn) [Example 330, 2-amino-3-(4-(4-((2-aminoethyl)sulfonyl)-3-sulfamoyl-2-(2H-tetrazol-5-yl)phenyl)-1H-benzo[d]imidazol-2-yl)propanoic acid] | 0.639 | – | – | – | 3.125 | 0.675 | 3.61 | 6.25 | 2.00 | – | 3.125 | 6.25 | 1.563
7 | Nc1nc2cc(C(F)(F)F)cc(-c3ccc(S(=O)(=O)C4CNC4)c(S(N)(=O)=O)c3-c3nnn[nH]3)c2[nH]1 [Example 260, 3-(2-amino-5-(trifluoromethyl)-1H-benzo[d]imidazol-7-yl)-6-(azetidin-3-ylsulfonyl)-2-(1H-tetrazol-5-yl)benzenesulfonamide] | 0.813 | – | – | – | 6.25 | 0.598 | 1.99 | 6.25 | 1.00 | – | 6.25 | 12.5 | 6.25
8 | C[C@H](CN)S(=O)(=O)c1ccc(-c2cccc3c2nc(N)n3C)c(-c2nn[nH]n2)c1S(N)(=O)=O [Example 279, 3-(2-amino-1-methyl-1H-benzo[d]imidazol-4-yl)-6-((R)-1-aminopropan-2-ylsulfonyl)-2-(2H-tetrazol-5-yl)benzenesulfonamide] | 0.47 | – | – | – | 0.7813 | 0.806 | 0.695 | 3.125 | 4.00 | – | 0.3906 | 1.563 | 1.563
9 | Cn1cc(C(=O)C(F)(F)F)c2c(-c3ccc(S(=O)(=O)C4CNC4)c(S(N)(=O)=O)c3-c3nnn[nH]3)cccc21 [Example 229, 6-(azetidin-3-ylsulfonyl)-3-(1-methyl-3-(2,2,2-trifluoroacetyl)-1H-indol-4-yl)-2-(1H-tetrazol-5-yl)benzenesulfonamide] | 0.474 | 6.25 | 12.5 | 6.25 | 6.25 | 0.139 | – | 25 | 4.00 | 1.74 | – | – | –
10 | Nc1cc2cccc(-c3ccc(S(=O)(=O)C4CNC4)c(S(N)(=O)=O)c3-c3nn[nH]n3)c2cn1 [Example 35, 3-(3-aminoisoquinolin-8-yl)-6-(azetidin-3-ylsulfonyl)-2-(2H-tetrazol-5-yl)benzenesulfonamide] | 0.243 | 1.563 | 6.25 | 1.563 | 1.563 | 0.0695 | 0.503 | 1.563 | 1.00 | – | – | – | –
11 | NCCS(=O)(=O)c1ccc(-c2ccc(N)nc2)c(-c2nn[nH]n2)c1S(N)(=O)=O [Example 321, 6-((2-aminoethyl)sulfonyl)-3-(6-aminopyridin-3-yl)-2-(2H-tetrazol-5-yl) benzenesulfonamide] | 1.01 | – | – | – | 0.6406 | 1.36 | 0.949 | 1.781 | 2.78 | – | 0.125 | 1.281 | 0.4453
